# Assay results taken from PubChem BioAssay (NCI).
#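 Step 1: Grow cells in 96-well plates. Step 2: Expose to compound for 48 hours at 5 concentrations. Step 3: Interpolate endpoints linearly; if unreached, use highest concentration. Here, GI50 denotes the concentration required for 50% inhibition of growth. The concentration for full growth arrest is given as TGI.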
# Key:
# Assay in all cases: NCI-60 cell line screen, 48 h
# IGROV1 ovarian = tested on: IGROV1 ovarian
# CAKI-1 renal = tested on: CAKI-1 renal
# TK-10 renal = tested on: TK-10 renal
# DU-145 prostate = tested on: DU-145 prostate
# RXF 393 renal = tested on: RXF 393 renal
# CCRF-CEM leukemia = tested on: CCRF-CEM leukemia
# UO-31 renal = tested on: UO-31 renal
# SN12C renal = tested on: SN12C renal
# UACC-62 melanoma = tested on: UACC-62 melanoma
# PC-3 prostate = tested on: PC-3 prostate
# SK-MEL-2 melanoma = tested on: SK-MEL-2 melanoma
# LOX IMVI melanoma = tested on: LOX IMVI melanoma
# HT29 colon = tested on: HT29 colon
# SK-MEL-28 melanoma = tested on: SK-MEL-28 melanoma
# NCI-H226 lung = tested on: NCI-H226 lung
# U251 CNS = tested on: U251 CNS
# MDA-MB-435 = tested on: MDA-MB-435
# A549 NSCLC = tested on: A549 NSCLC
# OVCAR-8 ovarian = tested on: OVCAR-8 ovarian
# MALME-3M melanoma = tested on: MALME-3M melanoma
# K-562 leukemia = tested on: K-562 leukemia
# SK-MEL-5 melanoma = tested on: SK-MEL-5 melanoma
# OVCAR-5 ovarian = tested on: OVCAR-5 ovarian
# T-47D breast = tested on: T-47D breast
# HL-60(TB) leukemia = tested on: HL-60(TB) leukemia
# EKVX NSCLC = tested on: EKVX NSCLC
# ACHN renal = tested on: ACHN renal
# NCI-H23 lung = tested on: NCI-H23 lung
# KM12 colon = tested on: KM12 colon
# HCC-2998 colon = tested on: HCC-2998 colon
# MOLT-4 leukemia = tested on: MOLT-4 leukemia
# NCI-H460 lung = tested on: NCI-H460 lung
# SK-OV-3 ovarian = tested on: SK-OV-3 ovarian
# SNB-75 CNS = tested on: SNB-75 CNS
# NCI/ADR-RES ovarian = tested on: NCI/ADR-RES ovarian
# HCT-15 colon = tested on: HCT-15 colon
# HOP-62 NSCLC = tested on: HOP-62 NSCLC
# A498 renal = tested on: A498 renal
# HS 578T breast = tested on: HS 578T breast
# OVCAR-4 ovarian = tested on: OVCAR-4 ovarian
# SNB-19 CNS = tested on: SNB-19 CNS
# OVCAR-3 ovarian = tested on: OVCAR-3 ovarian
# COLO 205 colon = tested on: COLO 205 colon
# BT-549 breast = tested on: BT-549 breast
# SF-539 CNS = tested on: SF-539 CNS
# MCF7 breast = tested on: MCF7 breast
# SF-295 CNS = tested on: SF-295 CNS
# UACC-257 melanoma = tested on: UACC-257 melanoma
# SF-268 CNS = tested on: SF-268 CNS
# NCI-H522 lung = tested on: NCI-H522 lung
# SW-620 colon = tested on: SW-620 colon
# HOP-92 NSCLC = tested on: HOP-92 NSCLC
# M14 melanoma = tested on: M14 melanoma
# RPMI-8226 leukemia = tested on: RPMI-8226 leukemia
# MDA-MB-231 breast = tested on: MDA-MB-231 breast
# SR leukemia = tested on: SR leukemia
# 786-0 renal = tested on: 786-0 renal
# HCT-116 colon = tested on: HCT-116 colon
compound,measurement,setting,value
COc1cc(-n2cc(-c3ccc(Cl)c(Cl)c3)nc2SCc2ccccc2)cc(OC)c1OC,GI50,IGROV1 ovarian,> 100 µM
same,TGI,IGROV1 ovarian,> 100 µM
same,GI50,CAKI-1 renal,> 100 µM
same,TGI,CAKI-1 renal,> 100 µM
same,GI50,TK-10 renal,> 100 µM
same,TGI,TK-10 renal,> 100 µM
same,GI50,DU-145 prostate,> 100 µM
same,TGI,DU-145 prostate,> 100 µM
same,GI50,RXF 393 renal,92.5 µM
same,TGI,RXF 393 renal,> 100 µM
same,GI50,CCRF-CEM leukemia,> 100 µM
same,TGI,CCRF-CEM leukemia,> 100 µM
same,GI50,UO-31 renal,> 100 µM
same,TGI,UO-31 renal,> 100 µM
same,GI50,SN12C renal,> 100 µM
same,TGI,SN12C renal,> 100 µM
same,GI50,UACC-62 melanoma,> 100 µM
same,TGI,UACC-62 melanoma,> 100 µM
same,GI50,PC-3 prostate,38.9 µM
same,TGI,PC-3 prostate,> 100 µM
same,GI50,SK-MEL-2 melanoma,> 100 µM
same,TGI,SK-MEL-2 melanoma,> 100 µM
same,GI50,LOX IMVI melanoma,> 100 µM
same,TGI,LOX IMVI melanoma,> 100 µM
same,GI50,HT29 colon,> 100 µM
same,TGI,HT29 colon,> 100 µM
same,GI50,SK-MEL-28 melanoma,> 100 µM
same,TGI,SK-MEL-28 melanoma,> 100 µM
same,GI50,NCI-H226 lung,> 100 µM
same,TGI,NCI-H226 lung,> 100 µM
same,GI50,U251 CNS,> 100 µM
same,TGI,U251 CNS,> 100 µM
same,GI50,MDA-MB-435,> 100 µM
same,TGI,MDA-MB-435,> 100 µM
same,GI50,A549 NSCLC,> 100 µM
same,TGI,A549 NSCLC,> 100 µM
same,GI50,OVCAR-8 ovarian,> 100 µM
same,TGI,OVCAR-8 ovarian,> 100 µM
same,GI50,MALME-3M melanoma,> 100 µM
same,TGI,MALME-3M melanoma,> 100 µM
same,GI50,K-562 leukemia,> 100 µM
same,TGI,K-562 leukemia,> 100 µM
same,GI50,SK-MEL-5 melanoma,> 100 µM
same,TGI,SK-MEL-5 melanoma,> 100 µM
same,GI50,OVCAR-5 ovarian,> 100 µM
same,TGI,OVCAR-5 ovarian,> 100 µM
same,GI50,T-47D breast,> 100 µM
same,TGI,T-47D breast,> 100 µM
same,GI50,HL-60(TB) leukemia,> 100 µM
same,TGI,HL-60(TB) leukemia,> 100 µM
same,GI50,EKVX NSCLC,> 100 µM
same,TGI,EKVX NSCLC,> 100 µM
same,GI50,ACHN renal,> 100 µM
same,TGI,ACHN renal,> 100 µM
same,GI50,NCI-H23 lung,> 100 µM
same,TGI,NCI-H23 lung,> 100 µM
same,GI50,KM12 colon,> 100 µM
same,TGI,KM12 colon,> 100 µM
same,GI50,HCC-2998 colon,> 100 µM
same,TGI,HCC-2998 colon,> 100 µM
same,GI50,MOLT-4 leukemia,55.9 µM
same,TGI,MOLT-4 leukemia,> 100 µM
same,GI50,NCI-H460 lung,> 100 µM
same,TGI,NCI-H460 lung,> 100 µM
same,GI50,SK-OV-3 ovarian,> 100 µM
same,TGI,SK-OV-3 ovarian,> 100 µM
same,GI50,SNB-75 CNS,> 100 µM
same,TGI,SNB-75 CNS,> 100 µM
same,GI50,NCI/ADR-RES ovarian,> 100 µM
same,TGI,NCI/ADR-RES ovarian,> 100 µM
same,GI50,HCT-15 colon,> 100 µM
same,TGI,HCT-15 colon,> 100 µM
same,GI50,HOP-62 NSCLC,> 100 µM
same,TGI,HOP-62 NSCLC,> 100 µM
same,GI50,A498 renal,> 100 µM
same,TGI,A498 renal,> 100 µM
same,GI50,HS 578T breast,> 100 µM
same,TGI,HS 578T breast,> 100 µM
same,GI50,OVCAR-4 ovarian,> 100 µM
same,TGI,OVCAR-4 ovarian,> 100 µM
same,GI50,SNB-19 CNS,> 100 µM
same,TGI,SNB-19 CNS,> 100 µM
same,GI50,OVCAR-3 ovarian,> 100 µM
same,TGI,OVCAR-3 ovarian,> 100 µM
same,GI50,COLO 205 colon,> 100 µM
same,TGI,COLO 205 colon,> 100 µM
same,GI50,BT-549 breast,> 100 µM
same,TGI,BT-549 breast,> 100 µM
same,GI50,SF-539 CNS,> 100 µM
same,TGI,SF-539 CNS,> 100 µM
same,GI50,MCF7 breast,> 100 µM
same,TGI,MCF7 breast,> 100 µM
same,GI50,SF-295 CNS,> 100 µM
same,TGI,SF-295 CNS,> 100 µM
same,GI50,UACC-257 melanoma,> 100 µM
same,TGI,UACC-257 melanoma,> 100 µM
same,GI50,SF-268 CNS,> 100 µM
same,TGI,SF-268 CNS,> 100 µM
same,GI50,NCI-H522 lung,44.8 µM
same,TGI,NCI-H522 lung,> 100 µM
same,GI50,SW-620 colon,> 100 µM
same,TGI,SW-620 colon,> 100 µM
same,GI50,HOP-92 NSCLC,> 100 µM
same,TGI,HOP-92 NSCLC,> 100 µM
same,GI50,M14 melanoma,> 100 µM
same,TGI,M14 melanoma,> 100 µM
same,GI50,RPMI-8226 leukemia,> 100 µM
same,TGI,RPMI-8226 leukemia,> 100 µM
same,GI50,MDA-MB-231 breast,> 100 µM
same,TGI,MDA-MB-231 breast,> 100 µM
same,GI50,SR leukemia,> 100 µM
same,TGI,SR leukemia,> 100 µM
same,GI50,786-0 renal,> 100 µM
same,TGI,786-0 renal,> 100 µM
same,GI50,HCT-116 colon,80.7 µM
same,TGI,HCT-116 colon,> 100 µM
